Laboratory results as given in EP1243268A1, “MEDICINAL COMPOSITION” (Nippon Shinyaku Co., Ltd., priority 1999, dated 2001).

Tests used:
mice = test: Acute toxicity; assay type: in vivo; settings: suspension orally at 300 mg/kg, general condition observed for a week after administration
Experimental: Each of the compounds in Preparation Examples 1, 5, 6, 33, 34, 39, and 48 was administered.

mesangial cells = test: Effect on anti-Thy-1 antibody nephritis in rats (count of cells in the glomeruli); assay type: in vivo; settings: rats with anti-Thy-1 antibody nephritis; suspension (1mg/1ml) orally, 1 ml/100g of body weight twice a day for 7 days; kidneys removed on day 8; number of cells per glomerulus, mean ± standard error; Control 104.3±3.3, intact animal 67.25; *: P<0.05, **: P<0.01 (Dunnett's test)
Source text: Anti-Thy-1 antibody-induced nephritis is a model of glomerulonephritis constructed by utilizing the reaction between the Thy-1 antigen occurring as a membrane protein of mesangial cells and the antibody to the antigen. In this model, injuries to mesangial cells and lesions associated with mesangial cell proliferation are found. While a large majority of types of chronic glomerulonephritis in human are those of proliferative glomerulonephritis which show mesangial cell proliferation and increases in mesangial matrix as cardinal pathologic features, anti-Thy-1 antibody nephritis is regarded as a model of this human proliferative glomerulonephritis, particularly mesangial proliferative nephritis [Ishizaki et al., Acta. Pathol. Jpn., 36, 1191 (1986)].
Rats were used in groups of 7.
Preparation of the antibody was carried out in accordance with the method of Ishizaki et al. referred to above. Thus, an adjuvant suspension of rat thymocytes was prepared and subcutaneously administered to rabbits for immunization. After two booster doses, the blood was collected and the serum separated was subjected to inactivation and absorption to provide an antiserum (anti-Thy-1 antibody).
A predetermined amount of the antiserum was injected intravenously from the tail vein of rats to induce nephritis. Starting the following day after injection, a suspension (1mg/1ml) of the test drug was administered orally at a dosage of 1 ml/100g of body weight of rat twice a day for 7 days. On day 8 following the beginning of administration, the animals were sacrificed and the kidneys were removed. The kidney was fixed in Carnoy's fixative and, in the routine manner, paraffin sections were prepared and stained with hematoxyline stain for microscopy. For histopathological evaluation, the number of cells in the glomeruli (mainly mesangial cells) in each tissue preparation was counted under a light microscope. Statistical analysis was performed by Dunnett's test.

Cn1c(-c2ccccc2)c(C(=O)N2CC[N+]([O-])(c3ccccn3)CC2)c2ccccc21 [Preparation Example 5, 1-(1-Methyl-2-phenylindol-3-ylcarbonyl)-4-(2-pyridyl)piperazine-4-oxide]
deaths (mice): No deaths were observed

Cc1cc2c(C(=O)N3CCN(c4ccncc4)CC3)c(-c3ccccc3)n(C)c2cc1C.Cl [Preparation Example 39, 1-(1,5,6-Trimethyl-2-phenylindol-3-ylcarbonyl)-4-(4-pyridyl)piperazine hydrochloride]
deaths (mice): No deaths were observed

Cl.Cn1c(-c2ccccc2)c(C(=O)N2CCN(c3ccccn3)CC2)c2ccccc21 [Preparation Example 6, 1-(1-Methyl-2-phenylindol-3-ylcarbonyl)-4-(2-pyridyl)piperazine hydrochloride]
deaths (mice): No deaths were observed

Cc1ccc2c(c1)c(C(=O)N1CCN(c3ccccn3)CC1)c(-c1ccccc1)n2C.Cl [Preparation Example 1, 1-(1,5-Dimethyl-2-phenylindol-3-ylcarbonyl)-4-(2-pyridyl)piperazine hydrochloride]
deaths (mice): No deaths were observed | Number of mesangial cells a) (mesangial cells): 90.3±2.2*

Cc1ccc2c(c1)c(C(=O)N1CCN(c3ccncc3)CC1)c(-c1ccccc1)n2C.Cl [Preparation Example 34, 1-(1,5-Dimethyl-2-phenylindol-3-ylcarbonyl)-4-(4-pyridyl)piperazine hydrochloride]
deaths (mice): No deaths were observed | Number of mesangial cells a) (mesangial cells): 87.1±5.7**

Cc1ccc2c(c1)c(C(=O)N1CCN(c3cccnc3)CC1)c(-c1ccccc1)n2C.Cl.Cl [Preparation Example 33, 1-(1,5-Dimethyl-2-phenylindol-3-ylcarbonyl)-4-(3-pyridyl)piperazine dihydrochloride]
deaths (mice): No deaths were observed | Number of mesangial cells a) (mesangial cells): 88.5±3.7**

Cl.Cn1c(-c2ccccc2)c(C(=O)N2CCN(c3ccc([N+](=O)[O-])cn3)CC2)c2ccccc21 [Preparation Example 48, 1-(1-Methyl-2-phenylindol-3-ylcarbonyl)-4-(5-nitro-2-pyridyl)piperazine hydrochloride]
deaths (mice): No deaths were observed | Number of mesangial cells a) (mesangial cells): 89.2±3.1*
